From patent publication US20260053834A1, “COVALENT MODIFIERS OF AKT1 AND USES THEREOF” (Terremoto Biosciences, Inc., priority 2023, published 2026)

How the values were obtained:
[1] = tested on: LAPC4 prostate cancer cells, which express the AKT1 E17K allele; test: Antiproliferative effects in LAPC4 cells (CellTiter Glo, 72 h); assay type: cell-based; conditions: Homo sapiens, LAPC4, 72 h, read-out: LAPC4 proliferation IC50: GeoMean IC50
In short: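 Cells grown in IMDM with 12% FBS, seeded at 1,000 cells/well and treated with compound dilutions in DMSO for 72 h. Intracellular ATP read by luminescence. IC50 from a log(inhibitor) vs. response Hill fit.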

AKT2 = target: T1, AKT2 (Homo sapiens, UniProt P31751); test: Live cell target engagement by NanoBRET competitive probe displacement, AKT2; assay type: binding; conditions: transfected HEK293 cells, 2 h at 37° C., read-out: AKT2 IC50: GeoMean IC50
T1 construct: expressed in transfected cells; host or cells: HEK293
T1 sequence (P31751 whole entry): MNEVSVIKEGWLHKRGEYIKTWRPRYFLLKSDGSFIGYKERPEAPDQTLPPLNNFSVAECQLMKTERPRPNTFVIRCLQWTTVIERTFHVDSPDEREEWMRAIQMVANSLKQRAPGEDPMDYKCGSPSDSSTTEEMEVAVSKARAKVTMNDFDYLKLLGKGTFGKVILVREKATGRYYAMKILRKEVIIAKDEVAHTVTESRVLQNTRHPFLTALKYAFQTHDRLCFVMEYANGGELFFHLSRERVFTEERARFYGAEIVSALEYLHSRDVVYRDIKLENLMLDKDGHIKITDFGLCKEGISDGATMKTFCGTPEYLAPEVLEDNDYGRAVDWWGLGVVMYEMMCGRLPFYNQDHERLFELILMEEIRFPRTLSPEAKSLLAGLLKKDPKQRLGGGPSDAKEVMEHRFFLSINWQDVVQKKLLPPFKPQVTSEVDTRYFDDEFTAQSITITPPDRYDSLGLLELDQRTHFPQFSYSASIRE

AKT1 WT = target: T2, AKT1 WT (Homo sapiens, UniProt P31749); test: Live cell target engagement by NanoBRET competitive probe displacement, AKT1 WT; assay type: binding; conditions: transfected HEK293 cells, 2 h at 37° C., read-out: AKT1 WT IC50: GeoMean IC50
T2 construct: expressed in transfected cells; host or cells: HEK293
T2 sequence (P31749 whole entry): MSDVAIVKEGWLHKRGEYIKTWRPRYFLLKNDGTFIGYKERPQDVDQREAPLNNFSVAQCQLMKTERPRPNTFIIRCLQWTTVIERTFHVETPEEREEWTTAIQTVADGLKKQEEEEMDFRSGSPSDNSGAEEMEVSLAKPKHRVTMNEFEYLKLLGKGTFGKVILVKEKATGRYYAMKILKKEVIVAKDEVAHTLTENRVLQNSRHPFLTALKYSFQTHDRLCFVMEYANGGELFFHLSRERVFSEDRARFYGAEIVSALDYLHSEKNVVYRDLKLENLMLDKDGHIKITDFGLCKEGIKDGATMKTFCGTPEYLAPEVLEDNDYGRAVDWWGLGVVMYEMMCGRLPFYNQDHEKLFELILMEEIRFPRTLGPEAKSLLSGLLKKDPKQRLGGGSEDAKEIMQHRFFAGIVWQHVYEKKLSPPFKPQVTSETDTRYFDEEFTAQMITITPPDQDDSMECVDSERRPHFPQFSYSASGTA

AKT1 E17K = target: T3, AKT1 E17K (Homo sapiens, UniProt P31749, E17K); test: Live cell target engagement by NanoBRET competitive probe displacement, AKT1 E17K; assay type: binding; conditions: transfected HEK293 cells, 2 h at 37° C., read-out: AKT1 E17K IC50: GeoMean IC50
T3 construct: expressed in transfected cells; host or cells: HEK293
T3 sequence (P31749 whole entry E17K): as the sequence (P31749 whole entry) above, with E17K counted along it

For `Nc1ncccc1-c1nc2ccc(-c3ccccc3)nc2n1-c1ccc2c(c1)CC[C@@H]2NC(=O)c1cc(C=O)c2[nH]ncc2c1` [Example 35, N-[(1S)-5-[2-(2-aminopyridin-3-yl)-5-phenylimidazo[4,5-b]pyridin-3-yl]-2,3-dihydro-1H-inden-1-yl]-7-formyl-1H-indazole-5-carboxamide], the IC50 [1] was less than 10 nM, the IC50 (AKT2) was 10 to 100 nM and the IC50 (AKT1 WT) was 10 to 100 nM. For the same molecule, the IC50 (AKT1 E17K) was less than 10 nM.
`CN1CC(n2ccc(-c3ccc4nc(-c5cccnc5N)n(-c5ccc6c(c5)CC[C@@H]6NC(=O)c5ccc(O)c(C=O)c5)c4n3)n2)C1` [Example 165, (S)—N-(5-(2-(2-aminopyridin-3-yl)-5-(1-(1-methylazetidin-3-yl)-1H-pyrazol-3-yl)-3H-imidazo[4,5-b]pyridin-3-yl)-2,3-dihydro-1H-inden-1-yl)-3-formyl-4-hydroxybenzamide] was tested, and the IC50 [1] was 100 to 2000 nM, the IC50 (AKT2) was 100 to 2000 nM and the IC50 (AKT1 WT) was 10 to 100 nM. For the same molecule, the IC50 (AKT1 E17K) was 10 to 100 nM.
`Nc1ncccc1-c1nc2ccc(-c3cnccn3)nc2n1-c1ccc2c(c1)CC[C@@H]2NC(=O)c1cc(C=O)c(O)c(F)c1F` [Example 103, N-[(1S)-5-[2-(2-aminopyridin-3-yl)-5-(pyrazin-2-yl)imidazo[4,5-b]pyridin-3-yl]-2,3-dihydro-1H-inden-1-yl]-2,3-difluoro-5-formyl-4-hydroxybenzamide] was tested, and the IC50 [1] was 10 to 100 nM, the IC50 (AKT2) was 100 to 2000 nM and the IC50 (AKT1 WT) was 10 to 100 nM. It also gave an IC50 (AKT1 E17K) of 10 to 100 nM.
With `Nc1cc(O)c(C=O)cc1C(=O)N[C@H]1CCc2cc(-n3c(-c4cccnc4N)nc4ccc(-n5cccn5)nc43)ccc21` [Example 237, 2-amino-N-[(1S)-5-[2-(2-aminopyridin-3-yl)-5-(pyrazol-1-yl)imidazo[4,5-b]pyridin-3-yl]-2,3-dihydro-1H-inden-1-yl]-5-formyl-4-hydroxybenzamide] the IC50 [1] was 100 to 2000 nM, the IC50 (AKT2) was 100 to 2000 nM and the IC50 (AKT1 WT) was 10 to 100 nM. For the same molecule, the IC50 (AKT1 E17K) was 10 to 100 nM.
With `Nc1ncccc1-c1nc2ccc(-n3nccn3)nc2n1-c1ccc2c(c1)CC[C@@H]2NC(=O)c1cc(C=O)c(O)c(F)c1F` [Example 118, (S)—N-(5-(2-(2-aminopyridin-3-yl)-5-(2H-1,2,3-triazol-2-yl)-3H-imidazo[4,5-b]pyridin-3-yl)-2,3-dihydro-1H-inden-1-yl)-2,3-difluoro-5-formyl-4-hydroxybenzamide] the IC50 [1] was 10 to 100 nM, the IC50 (AKT2) was 100 to 2000 nM and the IC50 (AKT1 WT) was 10 to 100 nM. The IC50 (AKT1 E17K) was 10 to 100 nM.
With `Cc1cnc(-c2ccc3nc(-c4cccnc4N)n(-c4ccc5c(c4)CC[C@@H]5NC(=O)c4ccc(O)c(C=O)c4)c3n2)o1` [Example 174, N-[(1S)-5-[2-(2-aminopyridin-3-yl)-5-(5-methyl-1,3-oxazol-2-yl)imidazo[4,5-b]pyridin-3-yl]-2,3-dihydro-1H-inden-1-yl]-3-formyl-4-hydroxybenzamide] the IC50 [1] was 100 to 2000 nM, the IC50 (AKT2) was 100 to 2000 nM and the IC50 (AKT1 WT) was 10 to 100 nM. The IC50 (AKT1 E17K) was 10 to 100 nM.
With `CN(C)S(=O)(=O)Nc1ccc(C(=O)N[C@H]2CCc3cc(-n4c(-c5cccnc5N)nc5ccc(-n6cccn6)nc54)ccc32)cc1C=O` [Example 154, N-[(1S)-5-[2-(2-aminopyridin-3-yl)-5-(pyrazol-1-yl)imidazo[4,5-b]pyridin-3-yl]-2,3-dihydro-1H-inden-1-yl]-4-[(dimethylsulfamoyl)amino]-3-formylbenzamide] the IC50 [1] was 10 to 100 nM, the IC50 (AKT2) was 100 to 2000 nM and the IC50 (AKT1 WT) was 10 to 100 nM. It also gave an IC50 (AKT1 E17K) of less than 10 nM.
`Nc1ncccc1-c1nc2ccc(-c3cnccn3)nc2n1-c1ccc2c(c1)CC[C@@H]2NC(=O)c1cc(F)c(O)c(C=O)c1` [Example 70, (S)—N-(5-(2-(2-aminopyridin-3-yl)-5-(pyrazin-2-yl)-3H-imidazo[4,5-b]pyridin-3-yl)-2,3-dihydro-1H-inden-1-yl)-3-fluoro-5-formyl-4-hydroxybenzamide] was tested, and the IC50 [1] was 100 to 2000 nM, the IC50 (AKT2) was 100 to 2000 nM and the IC50 (AKT1 WT) was 10 to 100 nM. It also gave an IC50 (AKT1 E17K) of 10 to 100 nM.
